The record followed here is patent US20050084471A1, “Concentrated antimicrobial compositions and methods” (3M Innovative Properties Company, priority 2003, published 2005).

Assay [1] concerns Staph. aureus, ATCC 25923. The assay can be described thus: In vitro kill test of diluted formulations at 5° C., log reduction. It counts as cell-based, Staphylococcus aureus.
Assay [2] concerns E. coli 0157:H7 (ATCC# 700728). Briefly: Dip treatment of inoculated beef adipose, log reduction. In kind it is cell-based. Conditions: formulations diluted to 1% w/w + 2% lactic acid; for Log Reduction, 60 min at 5° C. / Log Reduction, 24 hours at 5° C.: 5 min treatment.
Procedure: Bacteria were grown in the same procedure described in Example 3. The bacteria strain was non-toxic E. coli 0157: H7 (ATCC# 700728).
After inoculation, the meat pieces were placed in a cooler at 5° C. for 30+/−5 minutes to allow attachment of the organisms.
A 11.4 cm^2 coring device was used to cut surface tissue excisions no thicker than 3 mm from the inoculated samples. The stainless steel coring device was disinfected prior to each run to prevent cross-contamination among the samples. Each circular tissue excision was placed in a filter stomacher bag with 15 ml of letheen diluent and stomached for 1 minuted prior to plating.
A 11.4 cm^2 coring device was used to cut surface tissue excisions no thicker than 3 mm from the inoculated samples. The stainless steel coring device was disinfected prior to each run to prevent cross-contamination among the meat samples.
The solution was shaken well until a milky emulsion formed. The emulsion solutions were used immediately after being made.
The circles were removed immediately and the excess solution was allowed to drip from the circle for 5 sec.
The circles were placed in stomacher bags. Two of them were placed into the refrigerator and the third was tested by adding 15 ml of Letheen diluent to the third stomacher bag. This bag was stomached for 1 minute prior to plating. Duplicate samples were plated from the undiluted sample in the stomacher bag. Serial ten-fold dilutions were made and plated on a [sequence] EB plate from each dilution. After incubation the plates were counted as recommended on the package insert. After 1 h refrigeration, one of the refrigerated stomacher bags was removed and the above steps repeated for the 1 h test circle. After 24 h refrigeration, the last of the stomacher bags was removed and the above steps repeated for the 24 h test circle.
Plates were read after incubation and log reductions determined as indicated in Example 3.

`CC(O)C(=O)O` (stereo not drawn) [2% Lactic Acid, Lactic Acid]: the “Log Reduction” value in assay [1] is below 2.72 log. Moreover, the “Log Reduction, 60 min at 5° C.” value came out at 1.37 log in assay [2] (solution at 5° C.), 1.74 log in assay [2] (solution at 23° C.) and 2.43 log in assay [2] (solution at 50° C.). For the same compound, the entries for the “Log Reduction, 24 hours at 5° C.” value in assay [2] (solution at 5° C.) and in assay [2] (solution at 50° C.) were 2.26 log and 2.54 log, respectively. Also, the “Log Reduction, 5 min dip” value in assay [2] (solution at 5° C.) stood at 0.51 log; in assay [2] (solution at 23° C.) it was 0.87 log; in assay [2] (solution at 50° C.) it was 1.72 log.
